Assay [1] deals with HLA-A2 molecule. In words: HLA class I stabilization assay with TAP2-deficient RMA-S/A2 cells. The class given is binding. The conditions noted are these: peptide 10 μg/ml.
Assay [2] deals with PBMCs from HLA-A2+ healthy donors. Briefly: Immunogenicity in PBMCs of HLA-A2+ healthy donors, IFN-γ ELISPOT against peptide-pulsed T2 cells. The conditions noted are these: PBMCs from 6 HLA-A2+ healthy donors, repeated stimulation with peptide 10 μg/ml. Format: cell-based, human. From the text: FIG. 1. Immunogenicity of T790M-5 and T790M-7 peptides in peripheral blood mononuclear cells (PBMCs) from normal donors. Immunogenicity of T790M-5 and T790M-7 peptides was examined with PBMCs from 6 different HLA-A2^+ healthy donors.

In assay [3] the target is T1, HLA-A2 molecule (Homo sapiens, UniProt P04439, D140Y/D185E/D98H/E176V/E277Q/G131W/G231S/I119V/I121R/I166T/I218V/L300P/L318F/N151K/N90K/P208A/P217A/Q86G/Q94H/R138H/R169H/T345S).
T1 construct: TAP2-deficient T2 cells expressing HLA-A2; host or cells: T2 cells (TAP2-deficient, HLA-A2+)
In words: HLA class I stabilization assay with TAP2-deficient T2 cells. Conditions: T2 cells expressing HLA-A2. The class given is binding. The protocol: FIG. 6. HLA-A2-binding capability of EGFR-T790M-derived peptides. The binding of selected peptides to an HLA-A2 molecule was evaluated by HLA class I stabilization assay with TAP2-deficient T2 cells expressing HLA-A2.
The binding of predicted peptides to an HLA-A2 molecule was evaluated by HLA class I stabilization assay with TAP2-deficient T2 cells (HLA-A2+) (RIKEN, Saitama, Japan). After overnight culture in RPMI 1640 medium at 26° C., T2 cells were cultured for 3 hours at 26° C. in the presence of each synthetic peptide. The cells were cultured for 2.5 hours at 37° C., and then stained with anti-HLA-A2 antibody (BB7.2) (MBL, Nagoya, Japan), followed by analysis with flow cytometry. The binding capability of each peptide to the HLA-A2 molecule was evaluated by comparing the mean fluorescence intensity (MFI) of HLA-A2 expression of the peptide with those of the positive and the negative controls. The HLA-A2-restricted HIV peptide and CMV peptide were used as positive controls, and H-2K^b-restricted OVA peptide was used as a negative control.

As for IMQLMPFGCL [Peptide T790M-4], the “HLA binding capability (%) (MFI increase of HLA-A2 expression)” value in assay [1] is given as 0%.
In the case of IMQLMPFGCLL [Peptide T790M-8], the “healthy donors in whom T cell lines secreting IFN-γ in response to the peptide were established” value in assay [2] is listed as “none of the 6 healthy donors”. In assay [1], the “HLA binding capability (%) (MFI increase of HLA-A2 expression)” value stood at 69.3%.
Regarding IMQLMPFGL [Peptide T790M-E], the “binding to HLA-A2 (in words)” value in assay [3] is “higher binding”.
On the same count and under the same terms, the entry for IMQLMPFGV [Peptide T790M-D] is “higher binding”.
Consider LIMQLMPFGC [Peptide T790M-3], for which, in assay [3], the “binding to HLA-A2 (in words)” value is recorded as “confirmed to bind to HLA-A2”. Further, the “HLA binding capability (%) (MFI increase of HLA-A2 expression)” value in assay [1] came out at 0%.
In the case of LTSTVQLIMQL [Peptide T790M-6], the “HLA binding capability (%) (MFI increase of HLA-A2 expression)” value in assay [1] came out at 0%.
On to QLIMQLMPFG [Peptide T790M-2], for which the “HLA binding capability (%) (MFI increase of HLA-A2 expression)” value in assay [1] turned out to be 0%.
Same read-out and setting: as for VQLIMQLMPF [Peptide T790M-1], the figure is 0%.

For the origin of these results see patent US9505824B2, “Antigen peptide derived from the sequence of epidermal growth factor receptor having T790M point mutation” (Kanagawa Prefectural Hospital Organization, priority 2012, dated 2016).
